# According to the supplement of paper PMC10307832:
# Tests used:
# Test in all cases: relative viability (nuclei count vs DMSO), 5 days (fraction); higher = more cells survive
# [1] = compound: C1=CC2=C(C=C(C(=C2N=C1)O)N=NC3=CC4=C(C=C3)C=C(C=C4)S(=O)(=O)O)S(=O)(=O)O + CC(=O)Nc1cccc(-n2c(=O)n(C3CC3)c(=O)c3c(Nc4ccc(I)cc4F)n(C)c(=O)c(C)c32)c1 [Trametinib] (partner 0.02 µM)
# In short: (§1)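 Nuclei were stained with Hoechst during a one-step fixation (final 0.05% Triton X-100, 1% formaldehyde, 1 ug/ml Hoechst) carried out 5 days after dosing, then counted on 4× images. The cells, lung cancer lines in 1536-well plates, had been dosed by pin tool the day after seeding with one drug alone or a fixed anchor-drug dose plus five library-drug doses (not always all listed) in √10 steps. Relative viability is the nuclei count in treated wells divided by that in vehicle wells, and each value is the median of duplicate plates.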
# [2] = compound: C1=CC2=C(C=C(C(=C2N=C1)O)N=NC3=CC4=C(C=C3)C=C(C=C4)S(=O)(=O)O)S(=O)(=O)O + CS(=O)(=O)N1CCN(Cc2cc3nc(-c4cccc5[nH]ncc45)nc(N4CCOCC4)c3s2)CC1 [Pictilisib] (partner 1 µM)
# In short: as §1
# [3] = compound: C1=CC2=C(C=C(C(=C2N=C1)O)N=NC3=CC4=C(C=C3)C=C(C=C4)S(=O)(=O)O)S(=O)(=O)O + NC(=O)Nc1cc(-c2cccc(F)c2)sc1C(=O)N[C@H]1CCCNC1 [AZD7762] (partner 0.2 µM)
# In short: as §1
# [4] = compound: O=C(NC1CCNCC1)c1n[nH]cc1NC(=O)c1c(Cl)cccc1Cl [AT-7519] + N=C(N)NC(=N)NCCc1ccccc1 [Phenformin] (partner 250 µM)
# In short: as §1
Cell Line,relative viability ([1]; first compound 0.08 µM),relative viability ([1]; first compound 0.253 µM),relative viability ([1]; first compound 0.8 µM),relative viability ([1]; first compound 2.53 µM),relative viability ([1]; first compound 8 µM),relative viability ([2]; first compound 0.08 µM),relative viability ([2]; first compound 0.253 µM),relative viability ([2]; first compound 0.8 µM),relative viability ([2]; first compound 2.53 µM),relative viability ([2]; first compound 8 µM),relative viability ([3]; first compound 0.08 µM),relative viability ([3]; first compound 0.253 µM),relative viability ([3]; first compound 0.8 µM),relative viability ([3]; first compound 2.53 µM),relative viability ([3]; first compound 8 µM),relative viability ([4]; first compound 0.01 µM),relative viability ([4]; first compound 0.03162 µM),relative viability ([4]; first compound 0.3162 µM),relative viability ([4]; first compound 1 µM)
H3255,0.588,0.614,0.66,0.654,0.624,0.482,0.462,0.4,0.49,0.439,0.893,0.881,0.89,0.939,0.899,0.489,0.384,0.313,0.31
NCI-H1437,0.528,0.477,0.524,0.623,0.641,0.489,0.419,0.47,0.507,0.56,1.11,1.11,1.1,1.2,1.08,0.322,0.328,0.292,0.194
LU99A,0.582,0.502,0.505,0.548,0.646,0.391,0.314,0.251,0.297,0.37,0.433,0.376,0.421,0.35,0.37,0.826,0.769,0.802,0.724
HCC-827,0.505,0.521,0.524,0.524,0.578,1.09,1.07,0.801,1.02,0.992,0.184,0.279,0.235,0.192,0.246,0.457,0.437,0.341,0.246
LK-2,0.795,0.602,0.607,0.776,0.552,0.677,0.522,0.613,0.541,0.552,0.549,0.345,0.369,0.452,0.285,0.278,0.482,–,0.307
HCC-366,0.402,0.342,0.398,0.432,0.302,0.142,0.139,0.165,0.219,0.203,0.291,0.273,0.26,0.272,0.291,0.624,0.616,0.613,0.509
BEN,1.1,1.1,0.948,1.07,1.05,0.617,0.564,0.493,0.667,0.48,0.694,0.749,0.729,0.77,0.557,0.522,0.234,0.269,0.257
NCI-H23,0.39,0.319,0.392,0.443,0.346,0.516,0.514,0.365,0.45,0.585,0.186,0.199,0.317,0.177,0.312,0.632,0.794,0.779,0.52
